According to ChEMBL document CHEMBL5537151, “Design, synthesis and bioactivity evaluation of novel fusion peptides and their CPT conjugates inducing effective anti-tumor responses on HER2 positive tumors” (Eur J Med Chem, 2024):
The source made the active and inactive calls. The rule behind the calls is not given here. Peptide text beside a SMILES is read from it. * marks the point of attachment. X1 = CCC1(C(=O)OCCS*)C(=O)OCc2c1cc1n(c2=O)Cc2cc3ccccc3nc2-1

What was measured:
SK-BR-3 [1] = assay: Induction of apoptosis in human SK-BR-3 cells assessed as increase in ROS level by flow cytometry analysis; assay type: functional, cell-based
[2] = Drug localization in lysosome of human SK-BR-3 cells assessed as increase in green fluorescence of FITC at 10 uM incubated for 6 hrs by FITC/Lysotracker red dye based laser confocal microscopic analysis; assay type: ADME, subcellular; details: sk-br-3, 6 h
[3] = Toxicity in nude mouse xenografted with human SK-BR-3 cells assessed as change in blood urea nitrogen level at 8 umol/kg, iv administered every 3 days for 14 days; assay type: organism-based; details: in vivo, 336 h, dose 8 µmol/kg, time 14 day
SK-BR-3 [4] = assay: Induction of apoptosis in human SK-BR-3 cells assessed as early apoptotic cells at 1 uM incubated for 24 hrs by Annexin V-FITC/PI staining based flow cytometry analysis (reference value: 2.80%); assay type: functional
[5] = Toxicity in nude mouse xenografted with human SK-BR-3 cells assessed as cell necrosis in kidney at 8 umol/kg, iv administered every 3 days for 14 days by H and E staining based analysis; assay type: organism-based; details: in vivo, 336 h, dose 8 µmol/kg, time 14 day
[6] = Drug release in human SK-BR-3 cells assessed as cathepsin-mediated camptothecin release by measuring increase in blue fluorescence at 10 uM incubated for 6 hrs by FITC/Lysotracker red dye based laser confocal microscopic analysis; assay type: ADME, cell-based; details: sk-br-3, 6 h
[7] = Toxicity in nude mouse xenografted with human SK-BR-3 cells assessed as cell necrosis in lung at 8 umol/kg, iv administered every 3 days for 14 days by H and E staining based analysis; assay type: organism-based; details: in vivo, 336 h, dose 8 µmol/kg, time 14 day
[8] = Toxicity in nude mouse xenografted with human SK-BR-3 cells assessed as inflammatory cell infiltration in lung at 8 umol/kg, iv administered every 3 days for 14 days by H and E staining based analysis; assay type: organism-based; details: in vivo, 336 h, dose 8 µmol/kg, time 14 day
MDA-MB-231 = assay: cells; details: Homo sapiens, MDA-MB-231, 48 h
Description: Cytotoxicity against HER-negative human MDA-MB-231 cells incubated for 48 hrs by CCK-8 assay

SK-BR-3 [9] = assay: Induction of apoptosis in human SK-BR-3 cells assessed as caspase-3 activation by measuring increase in green fluorescence incubated for 24 hrs by GreenNuc substrate/Hoechst 33342 staining based fluorescence microscopic analysis; assay type: functional, cell-based
SK-BR-3 [10] = assay: Induction of apoptosis in human SK-BR-3 cells assessed as necrotic cells at 1 uM incubated for 24 hrs by Annexin V-FITC/PI staining based flow cytometry analysis (reference value: 1.49%); assay type: functional
SK-BR-3 [11] = assay: Induction of apoptosis in human SK-BR-3 cells assessed as downregulation of XIAP protein expression at 2.5 to 5 uM incubated for 24 hrs by Western blot analysis; assay type: functional, cell-based; details: dose 2.5-5 µM
[12] = Toxicity in nude mouse xenografted with human SK-BR-3 cells assessed as cell necrosis in spleen at 8 umol/kg, iv administered every 3 days for 14 days by H and E staining based analysis; assay type: organism-based; details: in vivo, 336 h, dose 8 µmol/kg, time 14 day
SK-BR-3 [13] = assay: Induction of apoptosis in human SK-BR-3 cells assessed as live cells at 1 uM incubated for 24 hrs by Annexin V-FITC/PI staining based flow cytometry analysis (reference value: 94.6%); assay type: functional
[14] = Toxicity in nude mouse xenografted with human SK-BR-3 cells assessed as inflammatory cell infiltration in kidney at 8 umol/kg, iv administered every 3 days for 14 days by H and E staining based analysis; assay type: organism-based; details: in vivo, 336 h, dose 8 µmol/kg, time 14 day
[15] = Cytotoxicity against HER-negative human MCF-10A cells incubated for 48 hrs by CCK-8 assay; assay type: toxicity, cell-based
NCI-N87 = assay: cells; details: Homo sapiens, NCI-N87, 48 h
Description: Cytotoxicity against HER-positive human NCI-N87 cells incubated for 48 hrs by CCK-8 assay

[16] = Toxicity in nude mouse xenografted with human SK-BR-3 cells assessed as inflammatory cell infiltration in liver at 8 umol/kg, iv administered every 3 days for 14 days by H and E staining based analysis; assay type: organism-based; details: in vivo, 336 h, dose 8 µmol/kg, time 14 day
[17] = Drug localization in lysosome of human SK-BR-3 cells assessed as increase in red fluorescence of lysosomal dye at 10 uM incubated for 6 hrs by FITC/Lysotracker red dye based laser confocal microscopic analysis; assay type: ADME, subcellular; details: sk-br-3, 6 h
SK-BR-3 [18] = assay: cells; details: Homo sapiens, SK-BR-3, 48 h
Description: Cytotoxicity against HER-positive human SK-BR-3 cells incubated for 48 hrs by CCK-8 assay

[19] = Toxicity in nude mouse xenografted with human SK-BR-3 cells assessed as increase in ALT level at 8 umol/kg, iv administered every 3 days for 14 days; assay type: organism-based; details: in vivo, 336 h, dose 8 µmol/kg, time 14 day
SK-BR-3 [20] = assay: Induction of apoptosis in human SK-BR-3 cells assessed as late apoptotic cells at 1 uM incubated for 24 hrs by Annexin V-FITC/PI staining based flow cytometry analysis (reference value: 1.11%); assay type: functional
[21] = Toxicity in nude mouse xenografted with human SK-BR-3 cells assessed as change in alkaline phosphatase level at 8 umol/kg, iv administered every 3 days for 14 days; assay type: organism-based; details: in vivo, 336 h, dose 8 µmol/kg, time 14 day
SK-BR-3 [22] = assay: Induction of apoptosis in human SK-BR-3 cells assessed as downregulation of cIAP1 protein expression at 2.5 to 5 uM incubated for 24 hrs by Western blot analysis; assay type: functional, cell-based; details: dose 2.5-5 µM
SK-OV-3 = assay: cells; details: Homo sapiens, SK-OV-3, 48 h
Description: Cytotoxicity against HER-positive human SK-OV-3 cells incubated for 48 hrs by CCK-8 assay

[23] = Toxicity in nude mouse xenografted with human SK-BR-3 cells assessed as change in total protein level at 8 umol/kg, iv administered every 3 days for 14 days; assay type: organism-based; details: in vivo, 336 h, dose 8 µmol/kg, time 14 day
[24] = Toxicity in nude mouse xenografted with human SK-BR-3 cells assessed as increase in AST level at 8 umol/kg, iv administered every 3 days for 14 days; assay type: organism-based; details: in vivo, 336 h, dose 8 µmol/kg, time 14 day
[25] = biological target: T1, DNA topoisomerase 1 (Homo sapiens) (UniProt P11387); assay: Inhibition of topoisomerase 1 (unknown origin) assessed as reduction in DNA relaxation by measuring increase in supercoiled DNA level pretreated for 20 mins in water bath followed by pBR322 DNA addition and measured after 30 mins by agarose gel electrophoresis; details: dose 1-100 µM, time 50.0 min
T1 sequence (whole entry): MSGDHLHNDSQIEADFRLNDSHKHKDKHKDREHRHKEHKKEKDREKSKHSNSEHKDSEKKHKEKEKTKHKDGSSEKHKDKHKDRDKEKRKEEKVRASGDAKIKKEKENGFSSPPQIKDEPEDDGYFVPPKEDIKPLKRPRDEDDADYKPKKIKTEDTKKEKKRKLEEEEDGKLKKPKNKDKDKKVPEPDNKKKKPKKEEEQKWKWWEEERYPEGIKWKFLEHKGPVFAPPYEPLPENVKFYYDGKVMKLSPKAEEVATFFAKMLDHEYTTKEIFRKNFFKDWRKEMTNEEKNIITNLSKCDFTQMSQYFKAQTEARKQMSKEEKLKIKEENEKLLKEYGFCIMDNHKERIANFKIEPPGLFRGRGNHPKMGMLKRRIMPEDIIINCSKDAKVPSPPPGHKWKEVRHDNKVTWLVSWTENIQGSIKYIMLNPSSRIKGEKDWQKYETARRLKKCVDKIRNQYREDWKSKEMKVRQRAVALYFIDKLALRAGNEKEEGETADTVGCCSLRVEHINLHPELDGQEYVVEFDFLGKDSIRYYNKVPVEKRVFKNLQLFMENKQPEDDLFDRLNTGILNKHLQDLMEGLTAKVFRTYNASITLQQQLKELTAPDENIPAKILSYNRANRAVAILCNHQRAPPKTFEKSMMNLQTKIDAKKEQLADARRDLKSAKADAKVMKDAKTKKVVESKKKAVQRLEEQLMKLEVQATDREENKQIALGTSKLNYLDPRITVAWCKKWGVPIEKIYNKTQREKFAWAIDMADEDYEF

Drug uptake [2]: Active
Drug metabolism [6]: Metabolite_Detected
IC50 (MDA-MB-231): 18400 nM
IC50 (NCI-N87): 1580 nM
Drug uptake [17]: Active
IC50 (SK-BR-3 [18]): 530 nM
IC50 (SK-OV-3): 2500 nM
inhibition [25]: Dose-Dependent Effect
Compound: CC[C@H](C)[C@H](NC(=O)[C@@H]1CCCN1C(=O)[C@@H](NC(=O)[C@H](C)N)C(C)C)C(=O)N[C@@H](C)C(=O)N[C@@H](CCC(N)=O)C(=O)N[C@@H](CCCCN)C(=O)N[C@@H](CSSCCOC(=O)C1(CC)C(=O)OCc2c1cc1n(c2=O)Cc2cc3ccccc3nc2-1)C(=O)NCC(=O)N[C@@H](Cc1ccccc1)C(=O)N[C@@H](CC(C)C)C(=O)NCC(=O)N[C@@H](CC(N)=O)C(=O)N1CCC[C@H]1C(=O)N[C@@H](CC(N)=O)C(=O)N[C@@H](Cc1c[nH]c2ccccc12)C(=O)NCC(=O)N[C@@H](CCCNC(=N)N)C(=O)N[C@@H](CO)C(=O)N[C@@H](Cc1c[nH]c2ccccc12)C(=O)N[C@@H](Cc1ccc(O)cc1)C(=O)N[C@@H](CC(N)=O)C(=O)N[C@@H](CCC(N)=O)C(=O)N[C@@H](CCCNC(=N)N)C(=O)N[C@@H](Cc1ccccc1)C(=O)N[C@@H](CCCCN)C(N)=O (stereo partly drawn) (H-AVPIAQKC(X1)GFLGNPNWGRSWYNQRFK-NH2)
Activity (SK-BR-3 [1]): Active
Activity [3]: Non-Toxic
Activity (SK-BR-3 [4]): 26%
Activity [5]: Non-Toxic
Activity [7]: Non-Toxic
Activity [8]: Non-Toxic
Activity (SK-BR-3 [9]): Active
Activity (SK-BR-3 [10]): 3.42%
Activity (SK-BR-3 [11]): Active
Activity [12]: Non-Toxic
Activity (SK-BR-3 [13]): 61.1%
Activity [14]: Non-Toxic
IC50 at 48 h [15]: 17800 nM
Activity [16]: Non-Toxic
Activity [19]: Toxic
Activity (SK-BR-3 [20]): 9.46%
Activity [21]: Non-Toxic
Activity (SK-BR-3 [22]): Active
Activity [23]: Non-Toxic
Activity [24]: Toxic
